What all share (assay type): cell-based
The target in experiment [1] is T1, Gr21a/Gr63a CO2 receptor (Gr63a) (Drosophila melanogaster, UniProt Q9VPT1+Q9VZL7).
T1 construct: with Gr21a
T1 sequence (Q9VZL7 1-512): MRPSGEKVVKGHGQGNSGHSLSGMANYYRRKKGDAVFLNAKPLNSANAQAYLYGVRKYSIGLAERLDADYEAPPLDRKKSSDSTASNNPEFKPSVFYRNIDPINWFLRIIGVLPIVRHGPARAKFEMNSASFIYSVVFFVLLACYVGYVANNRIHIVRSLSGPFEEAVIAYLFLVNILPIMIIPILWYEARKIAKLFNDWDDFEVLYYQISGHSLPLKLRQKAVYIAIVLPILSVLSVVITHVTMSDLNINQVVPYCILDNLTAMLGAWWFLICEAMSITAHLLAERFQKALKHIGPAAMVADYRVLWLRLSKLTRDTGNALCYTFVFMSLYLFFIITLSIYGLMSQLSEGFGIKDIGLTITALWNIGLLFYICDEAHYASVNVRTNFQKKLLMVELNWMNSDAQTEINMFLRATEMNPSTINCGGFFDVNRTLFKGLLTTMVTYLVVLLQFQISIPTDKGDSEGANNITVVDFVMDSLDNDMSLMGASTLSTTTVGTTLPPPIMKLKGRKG
T1 sequence (Q9VPT1 1-447): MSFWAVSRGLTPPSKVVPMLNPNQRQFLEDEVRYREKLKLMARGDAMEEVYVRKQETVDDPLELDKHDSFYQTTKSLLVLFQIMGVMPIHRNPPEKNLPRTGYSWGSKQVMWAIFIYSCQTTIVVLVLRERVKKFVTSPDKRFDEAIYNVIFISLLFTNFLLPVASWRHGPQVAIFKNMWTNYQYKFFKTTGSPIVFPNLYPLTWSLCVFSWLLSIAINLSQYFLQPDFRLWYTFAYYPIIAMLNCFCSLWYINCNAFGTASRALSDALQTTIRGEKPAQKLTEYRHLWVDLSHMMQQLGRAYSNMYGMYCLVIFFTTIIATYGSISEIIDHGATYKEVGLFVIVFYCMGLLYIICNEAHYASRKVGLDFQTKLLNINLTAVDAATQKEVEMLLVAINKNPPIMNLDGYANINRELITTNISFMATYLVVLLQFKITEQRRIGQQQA
The experiment can be described thus: two-electrode voltage clamp, Xenopus oocytes, block of NaHCO3 current at […].

For experiment [2], the target named is T1, Gr21a/Gr63a CO2 receptor (Gr63a). Nature of the experiment: two-electrode voltage clamp, Xenopus oocytes, block of […] NaHCO3 current.
The target is the same in experiment [3]. Nature of the experiment: two-electrode voltage clamp, Xenopus oocytes, agonist current at […]. To be noted: read-out: % of 200 mM NHC response at 10 mM. In general terms: Two-electrode voltage clamp holds a large cell at a set potential and records current.

Consider six molecules from publication PMC10756536, “Functional expression and ligand identification of homo- and heteromeric Drosophila melanogaster CO2 receptors in the Xenopus laevis oocyte system” (PLOS ONE, 2023).

With `CCCCCCCCO` [1-octanol], the “two-electrode voltage clamp, Xenopus oocytes, block of NaHCO3 current at 10 mM” value (from here on “two-electrode voltage clamp”) in experiment [1] is on record as “Gr21/Gr63 were significantly inhibited by 1-octanol, isobutyraldehyde, 1-hexanol”.

In the case of `CC(C)=CCCC(C)CCO` (stereo not drawn) [citronellol], half-maximal inhibition in experiment [2] (IC50) required 5.1 ± 0.25 mM.

As to `CCCCCCO` [1-hexanol], the “two-electrode voltage clamp” value in experiment [1] is “Gr21/Gr63 were significantly inhibited by 1-octanol, isobutyraldehyde, 1-hexanol”.

With `COC(=O)C(C)=O` [methyl pyruvate], the activation at 10000 µM in experiment [3] is 29 ± 8%.

Regarding `CC(C)C=O` [isobutyraldehyde], the “two-electrode voltage clamp” value in experiment [1] is recorded as “Gr21/Gr63 were significantly inhibited by 1-octanol, isobutyraldehyde, 1-hexanol”.

Consider `CCCCCCN` [n-hexylamine], for which the activation at 10000 µM in experiment [3] turned out to be 64 ± 17%.
